The subject of one experiment is velvetleaf. In words: Test Example 5: herbicidal effect by foliage application, plastic box (Table 20, symbol M). To be noted: foliage application, 320 g/ha, 3 weeks after application. Type of experiment: in vivo, velvetleaf (Abutilon theophrasti). The procedure, abridged: (§1)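 Sow seeds spot-wise in sterilized diluvial soil; cover with ~1.5 cm soil. Grow 14 days in greenhouse, 25° C. to 30° C. Spray foliage with emulsion diluted to predetermined amount. Rate effect after 3 weeks.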
As for `CCCOc1ccc(-c2sc3ccc(F)cc3c2-c2c(O)c(C)nn(C)c2=O)cc1` [2-032], the “effect on velvetleaf (M)” value is 5 (Herbicidal rate of 90% or more (almost completely withered)).
In the case of `Cc1nn(C)c(=O)c(-c2c(-c3ccc(OC(C)C)cc3)sc3ccc(F)cc23)c1O` [2-034], the “effect on velvetleaf (M)” value is listed as 5 (Herbicidal rate of 90% or more (almost completely withered)).

For the next experiment, the system named is blackgrass. The experiment is described as follows: Test Example 5: herbicidal effect by foliage application, plastic box (Table 20, symbol J). The note with it: foliage application, 320 g/ha, 3 weeks after application. It counts as in vivo, blackgrass (Alopecurus myosuroides). The procedure, abridged:
as §1
On to `CCCOc1ccc(-c2sc3ccc(F)cc3c2-c2c(O)c(C)nn(C)c2=O)cc1` [2-032], for which the “effect on blackgrass (J)” value is listed as 5 (Herbicidal rate of 90% or more (almost completely withered)).
On to `Cc1nn(C)c(=O)c(-c2c(-c3ccc(OC(C)C)cc3)sc3ccc(F)cc23)c1O` [2-034], for which the “effect on blackgrass (J)” value is 5 (Herbicidal rate of 90% or more (almost completely withered)).

The subject of a further experiment is chickweed. In words: Test Example 4: herbicidal effect by soil treatment (Table 19, symbol P). It counts as in vivo, common chickweed (Stellaria media). The note with it: 320 g/ha. The procedure, abridged:
(§2)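 Soil-surface application: an emulsion agent diluted with water to the predetermined dose is sprayed uniformly over seeds lying under roughly 1.5 cm of sterilized diluvial soil. Boxes stay in a greenhouse at 25° C. to 30° C. Three weeks later, each species is graded on previously defined criteria.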
As to `CCCOc1ccc(-c2sc3ccc(F)cc3c2-c2c(O)c(C)nn(C)c2=O)cc1` [2-032], the “herbicidal effect rating, P: chickweed” value was 4 (Herbicidal rate of 70% or more and less than 90%).
In the case of `Cc1nn(C)c(=O)c(-c2c(-c3ccc(OC(C)C)cc3)sc3ccc(F)cc23)c1O` [2-034], the “herbicidal effect rating, P: chickweed” value was 4 (Herbicidal rate of 70% or more and less than 90%).

The next experiment concerns barnyard grass. The experiment is described as follows: Test Example 5: herbicidal effect by foliage application, plastic box (Table 20, symbol H). It counts as in vivo, barnyard grass (Echinochloa crus-galli). To be noted: foliage application, 320 g/ha, 3 weeks after application. The procedure, abridged: as §1
With `CCCOc1ccc(-c2sc3ccc(F)cc3c2-c2c(O)c(C)nn(C)c2=O)cc1` [2-032], the “effect on barnyard grass (H)” value was 5 (Herbicidal rate of 90% or more (almost completely withered)).
On to `Cc1nn(C)c(=O)c(-c2c(-c3ccc(OC(C)C)cc3)sc3ccc(F)cc23)c1O` [2-034], for which the “effect on barnyard grass (H)” value is 5 (Herbicidal rate of 90% or more (almost completely withered)).

For another experiment, the system named is Italian ryegrass. The experiment is described as follows: Test Example 4: herbicidal effect by soil treatment (Table 19, symbol K). Type of experiment: in vivo, Italian ryegrass (Lolium multiflorum). To be noted: 320 g/ha. The procedure, abridged: as §2
Regarding `CCCOc1ccc(-c2sc3ccc(F)cc3c2-c2c(O)c(C)nn(C)c2=O)cc1` [2-032], the “herbicidal effect rating, K: Italian ryegrass” value was 0 (Herbicidal rate of 5% or less (almost no effect)).
The same measure, in the same setting: then `Cc1nn(C)c(=O)c(-c2c(-c3ccc(OC(C)C)cc3)sc3ccc(F)cc23)c1O` [2-034], with 1 (Herbicidal rate of 5% or more and less than 20%).

The subject of a further experiment is persian speedwell. The experiment is described as follows: Test Example 4: herbicidal effect by soil treatment (Table 19, symbol R). Type of experiment: in vivo, Persian speedwell (Veronica persica). The note with it: 320 g/ha. The procedure, abridged: as §2
For `CCCOc1ccc(-c2sc3ccc(F)cc3c2-c2c(O)c(C)nn(C)c2=O)cc1` [2-032], the “herbicidal effect rating, R: persian speedwell” value is 5 (Herbicidal rate of 90% or more (almost completely withered)).
Same read-out and setting: then `Cc1nn(C)c(=O)c(-c2c(-c3ccc(OC(C)C)cc3)sc3ccc(F)cc23)c1O` [2-034], with 4 (Herbicidal rate of 70% or more and less than 90%).

The test system of a further experiment is lambsquarters. The experiment is described as follows: Test Example 4: herbicidal effect by soil treatment (Table 19, symbol O). It counts as in vivo, lambsquarters (Chenopodium album). To be noted: 320 g/ha. The procedure, abridged:
as §2
As for `CCCOc1ccc(-c2sc3ccc(F)cc3c2-c2c(O)c(C)nn(C)c2=O)cc1` [2-032], the “herbicidal effect rating, O: lambsquarters” value is on record as 5 (Herbicidal rate of 90% or more (almost completely withered)).
Regarding `Cc1nn(C)c(=O)c(-c2c(-c3ccc(OC(C)C)cc3)sc3ccc(F)cc23)c1O` [2-034], the “herbicidal effect rating, O: lambsquarters” value is reported as 5 (Herbicidal rate of 90% or more (almost completely withered)).

Another experiment concerns barnyard grass. In words: Test Example 3: herbicidal effect by foliage application, Wagner pot (Table 18, symbol H). It counts as in vivo, barnyard grass (Echinochloa crus-galli). To be noted: 320 g/ha. The procedure, abridged: (§3)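 Plants were sown in alluvial soil held under 0.1–0.5 cm standing water and grown 14 days in a greenhouse at 25–30 °C. An emulsifiable formulation, water-diluted to the set dose, was then sprayed onto the foliage, and effects were scored three weeks later using previously defined criteria.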
As to `CCCOc1ccc(-c2sc3ccc(F)cc3c2-c2c(O)c(C)nn(C)c2=O)cc1` [2-032], the “herbicidal effect on H (barnyard grass), rating 0-5” value is recorded as 5 (Herbicidal rate of 90% or more (almost completely withered)).
Turning to `Cc1nn(C)c(=O)c(-c2c(-c3ccc(OC(C)C)cc3)sc3ccc(F)cc23)c1O` [2-034], the “herbicidal effect on H (barnyard grass), rating 0-5” value is listed as 5 (Herbicidal rate of 90% or more (almost completely withered)).

For another experiment, the system named is windgrass. The experiment is described as follows: Test Example 4: herbicidal effect by soil treatment (Table 19, symbol L). It counts as in vivo, windgrass (Apera spica-venti). To be noted: 320 g/ha. The procedure, abridged:
as §2
Take `CCCOc1ccc(-c2sc3ccc(F)cc3c2-c2c(O)c(C)nn(C)c2=O)cc1` [2-032]: the “herbicidal effect rating, L: windgrass” value is recorded as 0 (Herbicidal rate of 5% or less (almost no effect)).
Regarding `Cc1nn(C)c(=O)c(-c2c(-c3ccc(OC(C)C)cc3)sc3ccc(F)cc23)c1O` [2-034], the “herbicidal effect rating, L: windgrass” value is given as 0 (Herbicidal rate of 5% or less (almost no effect)).

In the next experiment the test system is southern crabgrass. In words: Test Example 5: herbicidal effect by foliage application, plastic box (Table 20, symbol F). Type of experiment: in vivo, southern crabgrass (Digitaria ciliaris). The note with it: foliage application, 320 g/ha, 3 weeks after application. The procedure, abridged:
as §1
Consider `CCCOc1ccc(-c2sc3ccc(F)cc3c2-c2c(O)c(C)nn(C)c2=O)cc1` [2-032], for which the “effect on southern crabgrass (F)” value is 5 (Herbicidal rate of 90% or more (almost completely withered)).
On to `Cc1nn(C)c(=O)c(-c2c(-c3ccc(OC(C)C)cc3)sc3ccc(F)cc23)c1O` [2-034], for which the “effect on southern crabgrass (F)” value is on record as 5 (Herbicidal rate of 90% or more (almost completely withered)).

A further experiment relates to Japanese bulrush. In words: Test Example 1: herbicidal activity, application before weed generation under submerged conditions (Table 16, symbol B). It counts as in vivo, Japanese bulrush (Schoenoplectus juncoides). To be noted: 320 g/ha applied herbicide. The procedure, abridged: (§4)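 Emulsion formulation, water-diluted to set dose, was put onto the flooded surface (4 cm depth, alluvial soil) the same day weeds were sown and 2.5-leaf rice transplanted. After 3 weeks at 25-30 °C under glass, each species was rated 0 (≤5% kill) to 5 (≥90% kill).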
On to `CCCOc1ccc(-c2sc3ccc(F)cc3c2-c2c(O)c(C)nn(C)c2=O)cc1` [2-032], for which the “Herbicidal effect on B: Japanese bulrush (grade 0-5)” value is 4 (Herbicidal rate of 70% or more and less than 90%).
Consider `Cc1nn(C)c(=O)c(-c2c(-c3ccc(OC(C)C)cc3)sc3ccc(F)cc23)c1O` [2-034], for which the “Herbicidal effect on B: Japanese bulrush (grade 0-5)” value was 4 (Herbicidal rate of 70% or more and less than 90%).

Another experiment concerns windgrass. In words: Test Example 5: herbicidal effect by foliage application, plastic box (Table 20, symbol L). It counts as in vivo, windgrass (Apera spica-venti). To be noted: foliage application, 320 g/ha, 3 weeks after application. The procedure, abridged:
as §1
`CCCOc1ccc(-c2sc3ccc(F)cc3c2-c2c(O)c(C)nn(C)c2=O)cc1` [2-032]: the “effect on windgrass (L)” value is 4 (Herbicidal rate of 70% or more and less than 90%).
Same read-out and setting: the value for `Cc1nn(C)c(=O)c(-c2c(-c3ccc(OC(C)C)cc3)sc3ccc(F)cc23)c1O` [2-034] was 4 (Herbicidal rate of 70% or more and less than 90%).

Another experiment relates to late watergrass. The experiment is described as follows: Test Example 1: herbicidal activity, application before weed generation under submerged conditions (Table 16, symbol A). Type of experiment: in vivo, late watergrass (Echinochloa oryzicola). The note with it: 320 g/ha applied herbicide. The procedure, abridged: as §4
For `CCCOc1ccc(-c2sc3ccc(F)cc3c2-c2c(O)c(C)nn(C)c2=O)cc1` [2-032], the “Herbicidal effect on A: late watergrass (grade 0-5)” value was 4 (Herbicidal rate of 70% or more and less than 90%).
Regarding `Cc1nn(C)c(=O)c(-c2c(-c3ccc(OC(C)C)cc3)sc3ccc(F)cc23)c1O` [2-034], the “Herbicidal effect on A: late watergrass (grade 0-5)” value is 3 (Herbicidal rate of 40% or more and less than 70%).

The next experiment concerns wild oat. In words: Test Example 5: herbicidal effect by foliage application, plastic box (Table 20, symbol I). It counts as in vivo, wild oat (Avena fatua). The note with it: foliage application, 320 g/ha, 3 weeks after application. The procedure, abridged: as §1
For `CCCOc1ccc(-c2sc3ccc(F)cc3c2-c2c(O)c(C)nn(C)c2=O)cc1` [2-032], the “effect on wild oat (I)” value was 3 (Herbicidal rate of 40% or more and less than 70%).
On the same count and under the same terms, then `Cc1nn(C)c(=O)c(-c2c(-c3ccc(OC(C)C)cc3)sc3ccc(F)cc23)c1O` [2-034], with 3 (Herbicidal rate of 40% or more and less than 70%).

Another experiment relates to Chinese sprangletop. The experiment is described as follows: Test Example 3: herbicidal effect by foliage application, Wagner pot (Table 18, symbol D). Type of experiment: in vivo, chinese sprangletop (Leptochloa chinensis). To be noted: 320 g/ha. The procedure, abridged: as §3
Consider `CCCOc1ccc(-c2sc3ccc(F)cc3c2-c2c(O)c(C)nn(C)c2=O)cc1` [2-032], for which the “herbicidal effect on D (Chinese sprangletop), rating 0-5” value was 3 (Herbicidal rate of 40% or more and less than 70%).
Still for that read-out and setting: then `Cc1nn(C)c(=O)c(-c2c(-c3ccc(OC(C)C)cc3)sc3ccc(F)cc23)c1O` [2-034], with 0 (Herbicidal rate of 5% or less (almost no effect)).

In the next experiment the test system is oval-leafed pondweed. The experiment is described as follows: Test Example 1: herbicidal activity, application before weed generation under submerged conditions (Table 16, symbol C). It counts as in vivo, oval-leafed pondweed (Monochoria vaginalis). To be noted: 320 g/ha applied herbicide. The procedure, abridged: as §4
As to `CCCOc1ccc(-c2sc3ccc(F)cc3c2-c2c(O)c(C)nn(C)c2=O)cc1` [2-032], the “Herbicidal effect on C: oval-leafed pondweed (grade 0-5)” value was 4 (Herbicidal rate of 70% or more and less than 90%).
On the same count and under the same terms, the value for `Cc1nn(C)c(=O)c(-c2c(-c3ccc(OC(C)C)cc3)sc3ccc(F)cc23)c1O` [2-034] was 2 (Herbicidal rate of 20% or more and less than 40%).

Another experiment deals with rice flat sedge. The experiment is described as follows: Test Example 3: herbicidal effect by foliage application, Wagner pot (Table 18, symbol E). Type of experiment: in vivo, rice flat sedge (Cyperus iria). To be noted: 320 g/ha. The procedure, abridged:
as §3
For the compound `CCCOc1ccc(-c2sc3ccc(F)cc3c2-c2c(O)c(C)nn(C)c2=O)cc1` [2-032], the “herbicidal effect on E (rice flat sedge), rating 0-5” value is on record as 5 (Herbicidal rate of 90% or more (almost completely withered)).
Turning to `Cc1nn(C)c(=O)c(-c2c(-c3ccc(OC(C)C)cc3)sc3ccc(F)cc23)c1O` [2-034], the “herbicidal effect on E (rice flat sedge), rating 0-5” value is 5 (Herbicidal rate of 90% or more (almost completely withered)).

Source of the values: patent US20230085307A1, “PYRIDAZINONE COMPOUND AND HERBICIDE” (NISSAN CHEMICAL CORPORATION, priority 2019, published 2023).
